Data published in patent publication US6107489A, “Extended lifetimes in vivo renin inhibitors” (ConjuChem, Inc., priority 1999, dated 2000).
Read-outs that look alike come from different tables or passages of the source.

Assays:
[1] = test system: renin; assay type: in vivo, rabbit; settings: for Corrected % Inhibition: normalized for dilution
Method: Materials and Methods: The following procedures were done under sterile conditions. Rabbit plasma was obtained from freshly drawn heparinized blood. One 8 mL aliquot of plasma was incubated with 5 micromoles of YS-004-69 (15) (the NHS ester; "NHS-RI") for 60 minutes at room temperature. Another equal aliquot was similarly incubated with 5 micromoles of YS-004-65 (free acid; "Free RI"). The reaction mixtures were stored at 4° C. overnight. Aliquots of these samples were saved for analysis of total renin inhibitor content by a standard renin radioimmunoassay (RIA). After warming to 37° C., the plasma samples were injected into two autologous rabbits. The rabbits were then bled at defined intervals. The blood was centrifuged for 5 minutes at 2500 rpm and then aliquots of the plasma were analyzed by RIA. Results: Plasma proteins derivatized with the NHS ester of the renin inhibitor did indeed maintain the inhibitor in a conformation which remained bioavailable and inhibitory after an extended period of circulation in the blood. […] Again, the amount of inhibitor detectable has been normalized for the effect of dilution of the plasma by the volume of blood in circulation. "ND" means this measurement was not determined.

[2] = biological target: T1, renin (Homo sapiens, UniProt P00797); test: renin inhibition IC50; assay type: biochemical
T1 sequence (P00797 67-406): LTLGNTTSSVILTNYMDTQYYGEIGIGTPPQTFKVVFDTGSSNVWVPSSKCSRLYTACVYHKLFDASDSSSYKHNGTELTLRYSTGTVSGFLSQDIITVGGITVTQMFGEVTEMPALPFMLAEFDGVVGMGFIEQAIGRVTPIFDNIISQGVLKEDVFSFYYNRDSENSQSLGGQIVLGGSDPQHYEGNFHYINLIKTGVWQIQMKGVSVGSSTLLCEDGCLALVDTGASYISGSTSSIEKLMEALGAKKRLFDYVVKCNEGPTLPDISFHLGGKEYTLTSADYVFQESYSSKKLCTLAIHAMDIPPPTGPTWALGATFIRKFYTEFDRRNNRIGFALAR

Row | Compound | Crude % Inhibition ([1]; 10 min after injection) | Corrected % Inhibition ([1]; 10 min after injection) | Crude % Inhibition ([1]; 30 min after injection) | Corrected % Inhibition ([1]; 30 min after injection) | Crude % Inhibition ([1]; 1 hour after injection) | Corrected % Inhibition ([1]; 1 hour after injection) | Crude % Inhibition ([1]; 4 hours after injection) | Corrected % Inhibition ([1]; 4 hours after injection) | Crude % Inhibition ([1]; 6 hours after injection) | Corrected % Inhibition ([1]; 6 hours after injection) | Crude % Inhibition ([1]; 8 hours after injection) | Corrected % Inhibition ([1]; 8 hours after injection) | Crude % Inhibition ([1]; 1 day after injection) | Corrected % Inhibition ([1]; 1 day after injection) | Crude % Inhibition ([1]; 2 days after injection) | Corrected % Inhibition ([1]; 2 days after injection) | Crude % Inhibition ([1]; 3 days after injection) | Corrected % Inhibition ([1]; 3 days after injection) | Corrected % Inhibition ([1]; 6 days after injection) | Crude % Inhibition ([1]; 10 days after injection) | other results
1 | Boc-Phe-His-ACHPA-IIe-6-AC-NHS [YS-004-69] | 97.70% | 100.00% | 87.40% | 89.46% | 85.90% | 87.92% | 87.40% | 99.69% | 88.20% | 100.51% | 70.50% | 72.16% | 75.10% | 76.87% | 68.10% | 69.70% | 75.80% | 77.38% | 56.60% | 41.20% | Crude % Inhibition ([1]; 6 days after injection): 55.30%; Corrected % Inhibition ([1]; 10 days after injection): 42.17%
2 | CC[C@H](C)[C@H](NC(=O)C[C@H](O)[C@H](CC1CCCCC1)NC(=O)[C@H](Cc1c[nH]cn1)NC(=O)[C@H](Cc1ccccc1)NC(=O)OC(C)(C)C)C(=O)NCCCCCC(=O)O [YS-004-65, Boc-Phe-His-ACHPA-IIe-6-AC-OH] | 89.40% | 100.00% | 20.60% | 23.04% | -2.80% | -3.13% | -5.20% | -5.82% | -0.40% | -0.45% | -2.90% | -3.24% | -5.20% | -5.82% | -3.20% | -3.58% | 1.40% | 1.57% | 0.00% | -6.60% | Corrected % Inhibition ([1]; 10 days after injection): -7.38%; level of renin inhibitor / inhibition in plasma over time ([1]; rabbit, in vivo): not detectable after one hour; IC50 [2]: 50 nM
3 | CC[C@H](C)CNC(=O)C[C@H](O)[C@H](CC1CCCCC1)NC(=O)[C@H](Cc1c[nH]cn1)NC(=O)[C@H](Cc1ccccc1)NC(=O)OC(C)(C)C [parent renin inhibitor, reference compound] |  |  |  |  |  |  |  |  |  |  |  |  |  |  |  |  |  |  |  |  | IC50 [2]: 4 to 19 nM
